Test system: iPSC-CMs, iPSC-ECs and HUVECs phenotypes
Test: ToxPi 2.0 integration of POD values and physicochemical descriptors
Set-up: species or system human
Conditions: ToxPi-scaled (0-1) score; for huvec.cyto.24hr / huvec.mito.24hr / huvec.mitoint.24hr / huvec.nma.24hr / huvec.tc.24hr / huvec.mtl.18hr / huvec.tlps.18hr / huvec.tta.18hr / huvec.ttl.18hr: HUVECs; for huvec.mtl.18hr / huvec.tlps.18hr / huvec.tta.18hr / huvec.ttl.18hr / endo.mtl.18hr / endo.tlps.18hr / endo.tta.18hr / endo.ttl.18hr: tube formation; for cm.amp.avg.90min / cm.amp.cv.90min / cm.bpm.90min / cm.cam.90min / cm.decay.rise.90min / cm.mii.90min / cm.mito.90min / cm.spacing.cv.90min / cm.tc.90min / cm.amp.avg.24hrs / cm.amp.cv.24hrs / cm.bpm.24hrs / cm.cam.24hrs / cm.decay.rise.24hrs / cm.mii.24hrs / cm.mito.24hrs / cm.spacing.cv.24hrs / cm.tc.24hrs: iPSC cardiomyocytes; for endo.cyto.24hr / endo.mito.24hr / endo.mitoint.24hr / endo.nma.24hr / endo.tc.24hr / endo.mtl.18hr / endo.tlps.18hr / endo.tta.18hr / endo.ttl.18hr: iPSC endothelial cells
Procedure, shortened: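 Phenotypic readouts in iPSC-cardiomyocytes, iPSC-endothelial cells and HUVECs were normalised to 0.5% DMSO vehicle and fitted to a four-parameter logistic model. POD set at one SD cutoff of vehicle means, with 100 μM assigned when no response. PODs and physicochemical descriptors combined in ToxPi 2.0 scores.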

Clc1cccc(-c2cccc(Cl)c2)c1 [PCB 11, 3,3′-Dichlorobiphenyl]
huvec.cyto.24hr: 0.2265
huvec.mito.24hr: 0.2773
huvec.mitoint.24hr: 0.5099
huvec.nma.24hr: 0.3029
huvec.tc.24hr: 0.2265
huvec.mtl.18hr: 0
huvec.tlps.18hr: 0.1652
huvec.tta.18hr: 0
huvec.ttl.18hr: 0
cm.amp.avg.90min: 0.6423
cm.amp.cv.90min: 0.3673
cm.bpm.90min: 0.1538
cm.cam.90min: 0.6939
cm.decay.rise.90min: 0.6828
cm.mii.90min: 0.779
cm.mito.90min: 0.7948
cm.spacing.cv.90min: 0.06972
cm.tc.90min: 0.7336
cm.amp.avg.24hrs: 0.07152
cm.amp.cv.24hrs: 0.5878
cm.bpm.24hrs: 0.1537
cm.cam.24hrs: 0.1401
cm.decay.rise.24hrs: 0.254
cm.mii.24hrs: 0.6195
cm.mito.24hrs: 0.2384
cm.spacing.cv.24hrs: 0.3725
cm.tc.24hrs: 0.241
endo.cyto.24hr: 0
endo.mito.24hr: 0
endo.mitoint.24hr: 0
endo.nma.24hr: 0
endo.tc.24hr: 0
endo.mtl.18hr: 0
endo.tlps.18hr: 0
endo.tta.18hr: 0
endo.ttl.18hr: 0

Clc1ccc(Cl)c(-c2cc(Cl)ccc2Cl)c1 [PCB 52, 2,2′,5,5′-tetrachlorobiphenyl]
huvec.cyto.24hr: 0.5178
huvec.mito.24hr: 0.613
huvec.mitoint.24hr: 0.5572
huvec.nma.24hr: 0.3829
huvec.tc.24hr: 0.5178
huvec.mtl.18hr: 0
huvec.tlps.18hr: 0
huvec.tta.18hr: 0
huvec.ttl.18hr: 0
cm.amp.avg.90min: 0.5597
cm.amp.cv.90min: 0.1687
cm.bpm.90min: 0.3203
cm.cam.90min: 0.422
cm.decay.rise.90min: 0.1841
cm.mii.90min: 0.8432
cm.mito.90min: 0.3815
cm.spacing.cv.90min: 0.1566
cm.tc.90min: 0.3874
cm.amp.avg.24hrs: 0.3455
cm.amp.cv.24hrs: 0.4979
cm.bpm.24hrs: 0.3481
cm.cam.24hrs: 0.3478
cm.decay.rise.24hrs: 0.2921
cm.mii.24hrs: 0.2822
cm.mito.24hrs: 0.5634
cm.spacing.cv.24hrs: 0.2305
cm.tc.24hrs: 0.578
endo.cyto.24hr: 0
endo.mito.24hr: 0
endo.mitoint.24hr: 0
endo.nma.24hr: 0
endo.tc.24hr: 0
endo.mtl.18hr: 0.02365
endo.tlps.18hr: 0
endo.tta.18hr: 0
endo.ttl.18hr: 0

From article PMC7377239, “Cardiovascular Effects of Polychlorinated Biphenyls and Their Major Metabolites” (Environmental Health Perspectives, 2020)
